The results in this text go back to US20230183233A1, “Bicyclic Pyridin-2-one and pyrimidin-4-one Derivatives Useful As a Factor XIa Inhibitors” (Janssen Pharmaceutica NV, priority 2021, published 2023).

Where two headings read alike, the source gives them in different places. 5‑FAM = 5-carboxyfluorescein (5-FAM) label at the N-terminus

Common to all, as to format: biochemical
The target in test [1] is T1, Factor XIa (Homo sapiens, UniProt P03951). The test can be described thus: Factor XIa inhibition assay utilizing a fluorophore-quencher pair peptide substrate (FLINT, kinetic read). To be noted: peptide substrate cleaved by FXIa; fit to a substrate inhibition model.
T1 sequence (P03951 388-625 limits assumed): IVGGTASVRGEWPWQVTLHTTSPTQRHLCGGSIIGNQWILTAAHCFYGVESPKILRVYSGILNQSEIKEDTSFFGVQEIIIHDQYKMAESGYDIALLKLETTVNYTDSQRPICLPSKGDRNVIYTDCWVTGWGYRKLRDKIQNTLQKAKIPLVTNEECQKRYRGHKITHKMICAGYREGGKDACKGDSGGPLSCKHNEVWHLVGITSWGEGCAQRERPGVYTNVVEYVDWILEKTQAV
T1 sequence (P03951 19-387 partner limits assumed): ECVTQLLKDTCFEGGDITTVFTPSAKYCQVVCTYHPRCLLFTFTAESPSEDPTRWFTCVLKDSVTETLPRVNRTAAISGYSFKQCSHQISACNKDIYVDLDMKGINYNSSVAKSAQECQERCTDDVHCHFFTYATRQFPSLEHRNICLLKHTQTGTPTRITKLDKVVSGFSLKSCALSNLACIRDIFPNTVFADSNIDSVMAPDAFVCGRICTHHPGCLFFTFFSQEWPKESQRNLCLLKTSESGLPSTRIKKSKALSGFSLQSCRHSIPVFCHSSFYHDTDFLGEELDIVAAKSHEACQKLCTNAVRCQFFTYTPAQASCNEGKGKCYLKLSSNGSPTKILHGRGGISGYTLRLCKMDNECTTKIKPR
Test [2] concerns the target T1, Factor XIa. Described as above. The settings on record: read-out: FXIa KIN Inh IC50. An excerpt: Biological Example 1: Factor XIa Inhibition Assay Utilizing a Fluorophore-Quencher Pair Peptide Substrate A fluorescence intensity (FLINT) based assay was used to monitor inhibition of Factor XIa. The peptide substrate, 5Fam-[…]-K5Tamra (purchased from New England Peptide) was chosen based on the FXI sequence. Conversion of zymogen FXI to its activated form, FXIa, occurs by proteolytic cleavage by […] at two sites, Arg146 and Arg180. The custom peptide used in this assay was based on the Arg146 cleavage site of FXI. The peptide substrate was designed with a fluorophore-quencher pair, where the fluorescence is quenched until FXIa cleaves the 8-mer peptide after the Arg residue.
The 2× Factor XIa stock solution was prepared by diluting 6.562 μM stock in 1× assay buffer for a […].
Test compound(s) were run in an 11-point, 3-fold serial dilution with a final top compound concentration of 100 nM. Final DMSO in assay was 2%. FXIa was preincubated with compound for 30-minutes and then substrate was added to initiate the reaction. The assay was run with kinetic (KIN) reads at 5 min intervals over 30 minutes. […] More specifically, the assay was run as follows: • 100 nL of 0.01 mM test compound was dispensed into black 384-well non-binding Greiner BioOne 784900 plate for 0.1 μM final concentration; • 5 μL of 1× assay buffer was dispensed to column 24 (low control) and 5 μL 2× Factor XIa solution was dispensed to columns 1-23 (column 23 high control); • the plate was centrifuged with a “cover” plate at 500 rpm for 1 min • the plate was pre-incubated for 30 minutes at room temperature with plate covered; • 5 μL of 2× 5Fam-[…]-K5Tamra peptide substrate was dispensed into the entire plate, columns 1-24; • the plate was centrifuged with a “cover” plate at 500 rpm for 1 min; • the plate was read monitoring fluorescence intensity on the BMG PHERAStar at room temperature, using fluorescence module 485 nm/520 nm.
Percent inhibition (IC50) curves were generated per compound tested, and data was analyzed using a 4-parameter logistic fit using GeneData Screener. The relative fluorescence unit (RFU) values were normalized to percent inhibition using the following equation:
% inhibition=((HC−LC)−(compound−LC)/(HC−LC))*100 where LC—low control=mean signal of no Factor XIa or 100% inhibition of Factor XIa; HC—high control=mean signal of Factor XIa+5Fam-[…]-K5Tamra peptide substrate with DMSO only.
An 11-point dose response curve for the test compound(s) was generated using GENDATA to determine IC50 value based on the following equation:
Y=Bottom+(Top−Bottom)/(1+10^((log IC50−X)*HillSlope)) where Y is the % inhibition in the presence of X inhibitor concentration, Top=high control=mean signal of Factor XIa+5Fam-[…]-K5Tamra peptide substrate with DMSO only; Bottom=low control−mean signal of no Factor XIa or 100% inhibition of Factor XIa; HillSlope—Hill coefficient; and IC50=concentration of compound with 50% inhibition in relation to top/high control.

Test [3] deals with human plasma kallikrein (Homo sapiens, UniProt P03952). The test can be described thus: Kallikrein inhibition assay utilizing a quenched AMC peptide substrate (FLINT, kinetic read). The settings on record: read-out: Kallikrein KIN Inh IC50.
human plasma kallikrein, sequence (P03952 391-638 limits assumed): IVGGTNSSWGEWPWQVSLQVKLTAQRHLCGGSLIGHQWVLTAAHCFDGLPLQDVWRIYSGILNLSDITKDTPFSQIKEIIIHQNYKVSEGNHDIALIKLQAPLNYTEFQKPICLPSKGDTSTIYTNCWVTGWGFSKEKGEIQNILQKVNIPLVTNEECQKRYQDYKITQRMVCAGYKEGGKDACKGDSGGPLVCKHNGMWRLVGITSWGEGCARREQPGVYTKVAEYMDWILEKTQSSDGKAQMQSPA
human plasma kallikrein, sequence (P03952 20-390 partner limits assumed): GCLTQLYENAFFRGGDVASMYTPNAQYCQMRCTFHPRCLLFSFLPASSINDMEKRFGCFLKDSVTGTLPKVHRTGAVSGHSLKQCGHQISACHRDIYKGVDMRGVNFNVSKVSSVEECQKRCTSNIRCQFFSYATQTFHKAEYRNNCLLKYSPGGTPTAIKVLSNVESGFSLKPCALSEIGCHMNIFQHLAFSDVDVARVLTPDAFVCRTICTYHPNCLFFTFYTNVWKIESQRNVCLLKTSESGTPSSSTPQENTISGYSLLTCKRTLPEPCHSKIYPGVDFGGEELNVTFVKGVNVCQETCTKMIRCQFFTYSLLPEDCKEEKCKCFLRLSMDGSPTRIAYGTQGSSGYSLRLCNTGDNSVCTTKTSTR

For “5Fam-KLTRAETV-K5Tamra ({5‑FAM}-KLTRAETVK-{5‑TAMRA}) ["The peptide substrate ... designed with a fluorophore-quencher pair", "based on the Arg146 cleavage site of FXI", purchased from New England Peptide]”, in test [1], the Ki stood at 61.6 µM, the Km was found to be 12.4 µM and the kcat was 0.86 s⁻¹.
Take `C[C@H]1C[C@@H](c2[nH]c(-c3ccc(N)nc3F)nc2F)n2c1cc(-c1c(-n3cnnn3)ccc(Cl)c1F)cc2=O` (relative stereo) [Example 35, (1*S,3*S)-3-(2-(6-Amino-2-fluoropyridin-3-yl)-4-fluoro-1H-imidazol-5-yl)-7-(3-chloro-2-fluoro-6-(1H-tetrazol-1-yl)phenyl)-1-methyl-2,3-dihydroindolizin-5(1H)-one]: the IC50 is about 610 nM in test [2] (values in nM) and 9.8 µM in test [3] (values given with μM).
Regarding `C[C@H]1C[C@H](c2ncc(-c3ccc(N)nc3Cl)[nH]2)n2c1cc(-c1c(-n3cnnn3)ccc(Cl)c1F)cc2=O` (relative stereo) [Example 37, (1*S,3*R)-3-(5-(6-Amino-2-chloropyridin-3-yl)-1H-imidazol-2-yl)-7-(3-chloro-2-fluoro-6-(1H-tetrazol-1-yl)phenyl)-1-methyl-2,3-dihydroindolizin-5(1H)-one], the IC50 amounted to 283 nM in test [2] (values in nM) and 7.8 µM in test [3] (values given with μM).
For the molecule `C[C@H]1C[C@@H](c2ncc(-c3ccnc(CN)c3)[nH]2)n2c1cc(-c1c(-n3cnnn3)ccc(Cl)c1F)cc2=O` (relative stereo) [Example 39, (1*S,3*S)-3-(5-(2-(Aminomethyl)pyridin-4-yl)-1H-imidazol-2-yl)-7-(3-chloro-2-fluoro-6-(1H-tetrazol-1-yl)phenyl)-1-methyl-2,3-dihydroindolizin-5(1H)-one], in test [2] (values given with μM), the 50% inhibitory concentration (IC50) was found to be 6600 nM.
Regarding `C[C@H]1C[C@@H](c2ncc(-c3ccnn3C)[nH]2)n2c1nc(-c1c(-n3cnnn3)ccc(Cl)c1F)cc2=O` (relative stereo) [Example 146, (6*S,8*S)-2-(3-Chloro-2-fluoro-6-(1H-tetrazol-1-yl)phenyl)-8-methyl-6-(5-(1-methyl-1H-pyrazol-5-yl)-1H-imidazol-2-yl)-7,8-dihydropyrrolo[1,2-a]pyrimidin-4(6H)-one], the IC50 was 9 nM in test [2] (values in nM) and 0.296 µM in test [3] (values in nM).
For the molecule `C[C@H]1C[C@@H](c2ncc(-c3ccc(N)nc3F)[nH]2)n2c1nc(-c1c(-n3cnnn3)ccc(Cl)c1F)cc2=O` (relative stereo) [Example 149, (6*S,8*S)-6-(5-(6-Amino-2-fluoropyridin-3-yl)-1H-imidazol-2-yl)-2-(3-chloro-2-fluoro-6-(1H-tetrazol-1-yl)phenyl)-8-methyl-7,8-dihydropyrrolo[1,2-a]pyrimidin-4(6H)-one], the 50% inhibitory concentration (IC50) in test [2] (values in nM) worked out at 0.3 nM; in test [3] (values in nM), 0.0235 µM.
In the same order, the values of `Nc1ccc(-c2cnc([C@H]3CC4(CC4)c4cc(-c5cc(Cl)ccc5-n5cnnn5)cc(=O)n43)[nH]2)c(F)n1` (single isomer, unassigned) [Example 3] are 2.7 nM and 0.0392 µM.
On to `CC1C[C@@H](c2ncc(-c3cnns3)[nH]2)n2c1nc(-c1c(-n3cnnn3)ccc(Cl)c1F)cc2=O` (stereo in doubt) [Example 110, (6*S)-6-(5-(1,2,3-Thiadiazol-5-yl)-1H-imidazol-2-yl)-2-(3-chloro-2-fluoro-6-(1H-tetrazol-1-yl)phenyl)-8-methyl-7,8-dihydropyrrolo[1,2-a]pyrimidin-4(6H)-one], for which the IC50 worked out at 92.1 nM in test [2] (values in nM) and 2.3 µM in test [3] (values given with μM).
